≈ marks a conversion by molar mass, not a printed value. Read-outs that look alike come from different tables or passages of the source.
Columns and labels:
[1] = Cytotoxicity against mock-infected MT-4 cells (MTT); assay type: cell-based, human; conditions: human, concentration reducing viability of mock-infected MT-4 cells by 50%
Description: (§1) Cell line supporting the multiplication of Human Immunodeficiency Virus type-1 (HIV-1) was the CD4+ human T-cells, derived from human hematological tumors, containing an integrated HTLV-1 genome (MT-4). Cells were purchased from American Type Culture Collection (ATCC). Human Immunodeficiency Virus type-1 (HIV-1) IIIB laboratory strain was obtained from the supernatant of the persistently infected H9/IIIB cells (NIH 1983).
Exponentially growing MT-4 cells were seeded at an initial density of 1 × 10^5 cells/mL in 96-well plates in RPMI-1640 medium, supplemented with 10% fetal bovine serum (FBS), 100 units/mL penicillin G and 100 μg/mL streptomycin. Cell cultures were then incubated at 37 °C in a humidified, 5% CO2 atmosphere, in the absence or presence of serial dilutions of tested compounds. Cell viability was determined after 96 h at 37 °C by the 3-(4,5-dimethylthiazol-2-yl)-2,5-diphenyl-tetrazolium bromide (MTT) method.

[2] = test system: HIV-1 IIIB; test: Anti-HIV-1 activity: protection of MT-4 cells from virus-induced cytopathogenicity (MTT); assay type: cell-based, Human Immunodeficiency Virus type-1; conditions: Human immunodeficiency virus 1, IIIB, MT4, 96 h, read-out: HIV-1IIIB EC50
Source text: as §1
The activity of compounds against HIV-1 was based on inhibition of virus-induced cytopathogenicity in MT-4 cell acutely infected with a multiplicity of infection (m.o.i.) of 0.01. Briefly, 50 μL of RPMI containing 1 × 10^4 MT-4 cells were added to each well of flat-bottom microtiter trays, containing 50 μL of RPMI without or with serial dilutions of test compounds. Then, 20 μL of a HIV-1 suspension containing 100 CCID50 were added. After a 4-day incubation at 37 °C, cell viability was determined by the MTT method.

[3] = test system: staphylococci; test: MIC against staphylococci; assay type: cell-based; conditions: moderate activity
Description: (§2) The antimicrobial activity of the compounds was tested on Gram-positive bacteria (Staphylococcus aureus NCTC 4163, Staphylococcus aureus ATCC 25923, Staphylococcus aureus ATCC 6538, Staphylococcus aureus ATCC 29213, Staphylococcus epidermidis ATCC 12228, Staphylococcus epidermidis ATCC 35984, Enterococcus faecalis ATCC 29212, Bacillus subtilis ATCC 6633, Bacillus cereus ATCC 11778, Micrococcus luteus ATCC 9341, Micrococcus luteus ATCC 10240); Gram-negative rods (Escherichia coli ATCC 10538, Escherichia coli ATCC 25922, Escherichia coli NCTC 8196, Proteus vulgaris NCTC 4635, Pseudomonas aeruginosa ATCC 15442, Pseudomonas aeruginosa NCTC 6749, Pseudomonas aeruginosa ATCC 27863, Bordetella bronchiseptica ATCC 4617) and yeasts (Candida albicans ATCC 10231, Candida albicans ATCC 90028, Candida parapsilosis ATCC 22019). Other microorganisms used were obtained from the collection of the Department of Pharmaceutical Microbiology, Medical University of Warsaw, Poland.
(§3) Antibacterial activity was examined by the disc-diffusion method under standard conditions using Mueller-Hinton II agar medium (Becton Dickinson) according to CLSI (previously NCCLS) guidelines. Antifungal activities were assessed using Mueller-Hinton agar + 2% glucose and 0.5 µg/mL Methylene Blue Dye Medium. Sterile filter paper discs (9 mm diameter, Whatman No 3 chromatography paper) were dripped with tested compound solutions (in DMSO) to load 400 μg of a given compound per disc. Dry discs were placed on the surface of appropriate agar medium. The results (diameter of the growth inhibition zone) were read after 18 h of incubation at 35 °C. Minimal Inhibitory Concentration (MIC) was tested by the twofold serial microdilution method (in 96-well microtiter plates) using Mueller-Hinton Broth medium (Beckton Dickinson) for bacteria or RPMI-1640 medium for Candida species according to CLSI guidelines. The stock solution of tested agent was prepared in DMSO and diluted in sterile water. Concentrations of tested agents ranged from 0.125 to 512 µg/mL. The final inoculum of all studied microorganisms was 10^5 CFU/ mL^−1 (colony forming units per mL). Minimal inhibitory concentrations (the lowest concentration of a tested agent that prevents visible growth of a microorganism) were read after 18 h (bacteria) or 24 h (yeasts) of incubation at 35 °C.

[4] = test system: M. luteus ATCC 10240; test: MIC, twofold serial microdilution; assay type: cell-based; conditions: Micrococcus luteus, ATCC10240; standard strain, 18 h, 35 °C
Description: as §2, §3

[5] = test system: B. cereus ATCC 11778; test: MIC, twofold serial microdilution; assay type: cell-based; conditions: Bacillus cereus, ATCC11778; standard strain, 18 h, 35 °C
Description: as §2, §3

[6] = test system: S. aureus ATCC 25923; test: MIC, twofold serial microdilution; assay type: cell-based; conditions: Staphylococcus aureus, ATCC25923; standard strain, 18 h, 35 °C
Description: as §2, §3

[7] = test system: M. luteus ATCC 9341; test: MIC, twofold serial microdilution; assay type: cell-based; conditions: Micrococcus luteus, ATCC9341; standard strain, 18 h, 35 °C
Description: as §2, §3

[8] = test system: S. aureus ATCC 29213; test: MIC, twofold serial microdilution; assay type: cell-based; conditions: Staphylococcus aureus, ATCC29213; standard strain, 18 h, 35 °C
Description: as §2, §3

[9] = test system: S. epidermidis ATCC 12228; test: MIC, twofold serial microdilution; assay type: cell-based; conditions: Staphylococcus epidermidis, ATCC12228; standard strain, 18 h, 35 °C
Description: as §2, §3

[10] = test system: B. subtilis ATCC 6633; test: MIC, twofold serial microdilution; assay type: cell-based; conditions: Bacillus subtilis, ATCC6633; standard strain, 18 h, 35 °C
Description: as §2, §3

[11] = test system: S. aureus ATCC 6538; test: MIC, twofold serial microdilution; assay type: cell-based; conditions: Staphylococcus aureus, ATCC6538; standard strain, 18 h, 35 °C
Description: as §2, §3

[12] = test system: S. epidermidis ATCC 35984; test: MIC, twofold serial microdilution; assay type: cell-based; conditions: Staphylococcus epidermidis, ATCC35984; standard strain, 18 h, 35 °C
Description: as §2, §3

[13] = test system: S. aureus NCTC 4163; test: MIC, twofold serial microdilution; assay type: cell-based; conditions: Staphylococcus aureus, NCTC4163; standard strain, 18 h, 35 °C
Description: as §2, §3

[14] = test system: S. epidermidis MRSE 411/11; test: MIC, hospital methicillin-resistant strain; assay type: cell-based; conditions: Staphylococcus epidermidis
Description: as §2, §3

[15] = test system: S. epidermidis MRSE 412/11; test: MIC, hospital methicillin-resistant strain; assay type: cell-based; conditions: Staphylococcus epidermidis
Description: as §2, §3

[16] = test system: S. epidermidis MRSE 413/11; test: MIC, hospital methicillin-resistant strain; assay type: cell-based; conditions: Staphylococcus epidermidis
Description: as §2, §3

[17] = test system: S. epidermidis MRSE 407/11; test: MIC, hospital methicillin-resistant strain; assay type: cell-based; conditions: Staphylococcus epidermidis
Description: as §2, §3

[18] = test system: S. epidermidis MRSE 406/11; test: MIC, hospital methicillin-resistant strain; assay type: cell-based; conditions: Staphylococcus epidermidis
Description: as §2, §3

[19] = test system: S. epidermidis MRSE 403/11; test: MIC, hospital methicillin-resistant strain; assay type: cell-based; conditions: Staphylococcus epidermidis
Description: as §2, §3

[20] = test system: S. epidermidis MRSE 405/11; test: MIC, hospital methicillin-resistant strain; assay type: cell-based; conditions: Staphylococcus epidermidis
Description: as §2, §3

[21] = test system: S. epidermidis MRSE 409/11; test: MIC, hospital methicillin-resistant strain; assay type: cell-based; conditions: Staphylococcus epidermidis
Description: as §2, §3

[22] = test system: S. epidermidis MRSE 422/11; test: MIC, hospital methicillin-resistant strain; assay type: cell-based; conditions: Staphylococcus epidermidis
Description: as §2, §3

[23] = test system: S. epidermidis MRSE 404/11; test: MIC, hospital methicillin-resistant strain; assay type: cell-based; conditions: Staphylococcus epidermidis
Description: as §2, §3

[24] = test system: E. faecalis ATCC 29212; test: MIC, twofold serial microdilution; assay type: cell-based; conditions: Enterococcus faecalis, ATCC29212; standard strain, 18 h, 35 °C
Description: as §2, §3

## O=[N+]([O-])c1cc(NC(=S)NC2CC3CCC2C3)ccc1Cl (stereo not drawn) [Compound 24, 1-bicyclo[2.2.1]hept-2-yl-3-(4-chloro-3-nitrophenyl)thiourea]
[1]
  CC50 at 96 h: 16 µM
[2]
  EC50: > 16 µM
other
  melting point: 94 to 96 °C
[3]
  MIC range towards staphylococci: 8 to 16 µg/mL
[4]
  MIC: 16 µg/mL (≈ 49.1 µM)
[5]
  MIC: 8 µg/mL (≈ 24.6 µM)
[6]
  MIC: 8 µg/mL (≈ 24.6 µM)
[7]
  MIC: 32 µg/mL (≈ 98.2 µM)
[8]
  MIC: 8 µg/mL (≈ 24.6 µM)
[9]
  MIC: 16 µg/mL (≈ 49.1 µM)
[10]
  MIC: 8 µg/mL (≈ 24.6 µM)
[11]
  MIC: 8 µg/mL (≈ 24.6 µM)
[12]
  MIC: 16 µg/mL (≈ 49.1 µM)
[13]
  MIC: 8 µg/mL (≈ 24.6 µM)
[14]
  MIC: 4 µg/mL (≈ 12.3 µM)
[15]
  MIC: 4 µg/mL (≈ 12.3 µM)
[16]
  MIC: 4 µg/mL (≈ 12.3 µM)
[17]
  MIC: 4 µg/mL (≈ 12.3 µM)
[18]
  MIC: 8 µg/mL (≈ 24.6 µM)
[19]
  MIC: 4 µg/mL (≈ 12.3 µM)
[20]
  MIC: 4 µg/mL (≈ 12.3 µM)
[21]
  MIC: 4 µg/mL (≈ 12.3 µM)
[22]
  MIC: 4 µg/mL (≈ 12.3 µM)
[23]
  MIC: 4 µg/mL (≈ 12.3 µM)

## C=CCNC(=S)Nc1ccc(Cl)c([N+](=O)[O-])c1 [Compound 28, 1-(4-chloro-3-nitrophenyl)-3-prop-2-en-1-ylthiourea]
[1]
  CC50 at 96 h: 43 µM
[2]; 50% protection of MT-4 cells from HIV-1 induced cytopathogenicity, MTT, 4-day incubation
  EC50: ≥ 43 µM
other
  melting point: 112 to 114 °C
[4]
  MIC: 32 µg/mL (≈ 118 µM)
[5]
  MIC: 32 µg/mL (≈ 118 µM)
[6]
  MIC: 32 µg/mL (≈ 118 µM)
[7]
  MIC: 32 µg/mL (≈ 118 µM)
[24]
  MIC: 64 µg/mL (≈ 236 µM)
[8]
  MIC: 64 µg/mL (≈ 236 µM)
[9]
  MIC: 32 µg/mL (≈ 118 µM)
[10]
  MIC: 32 µg/mL (≈ 118 µM)
[11]
  MIC: 32 µg/mL (≈ 118 µM)
[12]
  MIC: 32 µg/mL (≈ 118 µM)
[13]
  MIC: 64 µg/mL (≈ 236 µM)
[14]
  MIC: 64 µg/mL (≈ 236 µM)
[15]
  MIC: 128 µg/mL (≈ 471 µM)
[16]
  MIC: 64 µg/mL (≈ 236 µM)
[17]
  MIC: 64 µg/mL (≈ 236 µM)
[18]
  MIC: 64 µg/mL (≈ 236 µM)
[19]
  MIC: 64 µg/mL (≈ 236 µM)
[20]
  MIC: 64 µg/mL (≈ 236 µM)
[21]
  MIC: 64 µg/mL (≈ 236 µM)
[22]
  MIC: 128 µg/mL (≈ 471 µM)
[23]
  MIC: 64 µg/mL (≈ 236 µM)

From PMC6222614, “Disubstituted 4-Chloro-3-nitrophenylthiourea Derivatives: Antimicrobial and Cytotoxic Studies” (Molecules : A Journal of Synthetic Chemistry and Natural …, 2018)
